The subject of experiment [1] is neural stem cell line C17.2. In words: Proliferation of neural stem cell line C17.2, BrdU, high-content imaging. In kind it is cell-based. The conditions noted are these: 100 µg/mL, 48 h; for Proliferation-promoting results: percentage of BrdU-positive cells, significance vs blank control group; for number of BrdU positive cells: vs blank control group, in words. As for the experimental part: • (1) C17.2 cells were seeded in 96-well plates at a concentration of 1500 cells/100 µL/well. After overnight culture for cell adherence, the cells were treated with drugs; • (2) Drug treatment was applied. The final concentration of the polypeptide of the invention was 100 µg/mL. Meanwhile, butylphthalide (NBP, 5 µM) was set as the positive control. The cells were cultured in the incubator for another 48 h; • (3) BrdU was added at 44 h of treatment to a final concentration of 10 µM. Immunofluorescence staining was performed 4 h later, and the percentage of BrdU-positive cells was statistically analyzed using a high-content cell imaging analysis system.

Experiment [2] concerns Brain microvascular endothelial cells (BMECs) and brain microvascular smooth muscle cells (BMVSMCs). Briefly: In vitro angiogenesis assay, BMEC/BMVSMC co-culture on matrigel. In kind it is cell-based, mouse. The conditions noted are these: 0.1 mg/L, 48 h. The protocol:
First, mouse brain microvascular pellets were obtained by differential centrifugation. Brain microvascular endothelial cells (BMECs) and brain microvascular smooth muscle cells (BMVSMCs) were isolated by digestion with collagenase II, respectively, and cultured in a cell incubator with 5% CO2 at 37°C . Cells at passages 3-6 in good growth condition and logarithmic growth phase were selected for the in vitro angiogenesis assay.
One night before the experiment, the high-concentration matrigel was transferred from a -20°C or -80°C refrigerator to a 4°C refrigerator and allowed to thaw slowly overnight in the 4°C refrigerator. Pipette tips required for the formal experiment were sterilized in advance and pre-cooled in a 4°C refrigerator for subsequent use.
On the day of the experiment, the matrigel was added to a 96-well plate 1 h in advance and placed in a 37°C cell incubator until it solidified. Subsequently, the cells were washed 2 times with 2 mL of PBS buffer, followed by digestion with 0.25% trypsin to obtain EC and VSMC pellets, respectively, and cell counting was performed. A uniform cell suspension containing 5×10^3 BMVSMCs and 1×10^3 BMECs per well was then seeded into the 96-well plate pre-coated with the matrigel, and cultured in a 37°C, 5% CO2 cell incubator for 3 days.
During the culture period, tube formation was observed daily. The medium was changed on day 4, followed by treatment with the polypeptide of the invention at 0.1 mg/L or VEGFA at 10/15/20 ng/L for 48 h, respectively.
On day 5, the cell nuclei and live cells were labeled with Hoechst 33342 and Calcein AM, respectively. High-content brightfield and fluorescence imaging were then performed using a high-content screening system. Finally, angiogenesis in each treatment group was analyzed using the Angiogenesis Analyzer plugin for ImageJ, and statistical analysis was carried out with GraphPad Prism 10.

The test system of experiment [3] is primary neural stem cells (NSCs). Briefly: Differentiation of primary neural stem cells, βIII-tubulin fluorescence and Neurite Outgrowth Assay. The experiment is classed as cell-based, SD rats. Particulars: 100 µg/mL, 4 days; for neurite outgrowth (total neurite length, maximum neurite length, neurite terminals, neurite initiation points): Neurite Outgrowth Assay; for neurite outgrowth (total neurite length, maximum neurite length, neurite terminals, neurite initiation points) / mean fluorescence intensity of the neuronal marker protein βIII-tubulin: in words; for mean fluorescence intensity of the neuronal marker protein βIII-tubulin: vs blank control group. The protocol:
This part of the experiment requires feeding male and female rats in advance, then extracting hippocampal neural stem cells from newborn SD rats within 24 h of birth, culturing them to P3 for identification, and then using them for experiments. • (1) Extraction and culture of primary neural stem cells (NSCs) • (2) NSCs that have been passaged to P3 and have good viability were seeded in differentiation medium (2% FBS+DMEM/F12 1:1 medium) in 48-well plates with a cell concentration of 5×10^4 cells/mL per well. After overnight culture for cell adherence, the cells were treated with drugs; • (3) Drug treatment was applied. The final concentration of the polypeptide of the invention was 100 µg/mL. Meanwhile, nerve growth factor (NGF, 50 ng/mL) was set as the positive control, and the cells were cultured in the incubator for another 4 days; • (4) Immunofluorescence staining (primary antibody βIII-tubulin) was performed after 4 days of treatment. The average fluorescence intensity of βIII-tubulin was analyzed and the Neurite Outgrowth Assay was performed using a high-content cell imaging analysis system.

The mark [4] stands for this setting: significance vs blank control group.

The results in this text go back to EP4806904A1, “POLYPEPTIDE AND USE THEREOF” (Sichuan Gooddoctor Panxi Pharmaceutical Co. Ltd, priority 2023, dated 2026).

Where a SMILES comes first, the peptide text is derived from it. [ ]: non-standard residue; d: D form.

With `CC(C)C[C@H](NC(=O)[C@H](C)N)C(=O)N1CCC[C@H]1C(=O)N[C@@H](C)C(=O)N1CCC[C@H]1C(=O)NCC(=O)N[C@H](C(=O)N[C@H](CC(C)C)C(=O)O)[C@@H](C)O` [Compound 8, H-Ala-Leu-Pro-Ala-Pro-Gly-Thr-D-Leu-OH] (H-ALPAPGT[dL]-OH), the Proliferation-promoting results in experiment [1] was “* (*p < 0.05)”. Also, in experiment [2] (setting [4]), the Branch length result was “** (**p < 0.01)” and the Number of intersections entry is reported as “* (*p < 0.05)”. In addition, the angiogenesis-promoting effects result in experiment [2] (vs normal group, in words) is recorded as “exhibited angiogenesis-promoting effects”.

Regarding `CC(C)C[C@H](NC(=O)[C@@H](NC(=O)CNC(=O)[C@@H]1CCCN1)[C@@H](C)O)C(=O)O` [Compound 28, H-Pro-Gly-Thr-Leu-OH] (H-PGTL-OH), in experiment [1], the Proliferation-promoting results was “* (*p < 0.05)” and the “number of BrdU positive cells” value is given as “significant increase”. Further, the “neurite outgrowth (total neurite length, maximum neurite length, neurite terminals, neurite initiation points)” value (“neurite outgrowth” for short) in experiment [3] is reported as “tendency to promote neurite outgrowth”. Moreover, in experiment [3] (setting [4]), the “Number of neurite terminals” value is reported as “* (*p < 0.05)” and the Total neurite length entry is listed as “** (**p < 0.01)”.

Consider “Ac-ALPAPGTL-NH2 [Compound 11, Ac-Ala-Leu-Pro-Ala-Pro-Gly-Thr-Leu-NH2]”, for which, in experiment [1], the Proliferation-promoting results is listed as “** (**p < 0.01)” and the “number of BrdU positive cells” value is given as “significant increase”. Besides, the “neurite outgrowth” value in experiment [3] was “promote neurite outgrowth”. Further, in experiment [3] (setting [4]), the Longest neurite length result is on record as “** (**p < 0.01)”, the “Neurite initiation points (branches)” value is given as “*** (***p < 0.001)”, the “Number of neurite terminals” value is “** (**p < 0.01)” and the Total neurite length entry is recorded as “*** (***p < 0.001)”. For the same compound, in experiment [2] (setting [4]), the Branch length result is given as “* (*p < 0.05)” and the Number of intersections result is listed as “* (*p < 0.05)”. Moreover, the angiogenesis-promoting effects result in experiment [2] (vs normal group, in words) was “exhibited angiogenesis-promoting effects”.

Take “H-LAPAPGTI-OH [Compound 20, H-Leu-Ala-Pro-Ala-Pro-Gly-Thr-Ile-OH]”: the Proliferation-promoting results in experiment [1] is “* (*p < 0.05)”. Also, in experiment [3], the “neurite outgrowth” value is recorded as “tendency to promote neurite outgrowth” and the “mean fluorescence intensity of the neuronal marker protein βIII-tubulin” value (“mean fluorescence intensity” below) was “tendency to enhance”. In addition, in experiment [3] (setting [4]), the Longest neurite length result is reported as “* (*p < 0.05)” and the “Neurite initiation points (branches)” value is “* (*p < 0.05)”. Also, the Number of intersections entry in experiment [2] (setting [4]) is “* (*p < 0.05)”. In experiment [2] (vs normal group, in words), the Branch length entry is “no significant effects” and the number of junctions result is given as “promoting effects”.

Consider “H-AAPAPGTL-OH [Compound 16, H-Ala-Ala-Pro-Ala-Pro-Gly-Thr-Leu-OH]”, for which the Proliferation-promoting results in experiment [1] is listed as “* (*p < 0.05)”. The “mean fluorescence intensity” value in experiment [3] is “significant increase”. Further, in experiment [3] (βIII-tubulin, significance vs blank control group), the Average fluorescence intensity result is “* (*p < 0.05)”.

With `CC(C)C[C@H](NC(=O)[C@@H](NC(=O)CNC(=O)[C@@H]1CCCN1C(=O)[C@@H](C)NC(=O)[C@@H]1CCCN1C(=O)[C@H](CC(C)C)NC(=O)[C@H](C)N)[C@@H](C)O)C(=O)O` [Compound 5, H-Ala-Leu-Pro-D-Ala-Pro-Gly-Thr-Leu-OH] (H-ALP[dA]PGTL-OH), in experiment [1], the Proliferation-promoting results is reported as “** (**p < 0.01)”. In experiment [3] (setting [4]), the Longest neurite length result was “*** (***p < 0.001)”, the “Neurite initiation points (branches)” value is “*** (***p < 0.001)”, the “Number of neurite terminals” value was “* (*p < 0.05)” and the Total neurite length result is on record as “** (**p < 0.01)”. Besides, in experiment [2] (setting [4]), the Cell count result is “* (*p < 0.05)” and the Number of intersections result was “* (*p < 0.05)”. For the same compound, in experiment [2] (vs normal group, in words), the Branch length entry was “no significant effects” and the number of junctions entry was “promoting effects”.

As to `C[C@H](N)C(=O)N1CCC[C@H]1C(=O)NCC(=O)N[C@H](C(=O)O)[C@@H](C)O` [Compound 37, H-Ala-Pro-Gly-Thr-OH] (H-APGT-OH), in experiment [1], the Proliferation-promoting results is recorded as “* (*p < 0.05)” and the “number of BrdU positive cells” value is reported as “significant increase”.

For “H-ALPAPGAL-OH [Compound 18, H-Ala-Leu-Pro-Ala-Pro-Gly-Ala-Leu-OH]”, in experiment [1], the Proliferation-promoting results is reported as “*** (***p < 0.001)”. In experiment [2] (setting [4]), the Branch length result is recorded as “* (*p < 0.05)”, the Cell count entry is “* (*p < 0.05)” and the Number of intersections entry is on record as “* (*p < 0.05)”. In experiment [2] (vs normal group, in words), the angiogenesis-promoting effects result was “exhibited angiogenesis-promoting effects”.

As to “H-LPAPGT-OH [Compound 32, H-Leu-Pro-Ala-Pro-Gly-Thr-OH]”, in experiment [1], the Proliferation-promoting results is given as “* (*p < 0.05)” and the “number of BrdU positive cells” value was “significant increase”. For the same compound, in experiment [2] (setting [4]), the Branch length entry is “* (*p < 0.05)” and the Cell count entry was “** (**p < 0.01)”.

For `CC(C)C[C@H](NC(=O)[C@@H](NC(=O)CN)[C@@H](C)O)C(=O)O` [Compound 38, H-Gly-Thr-Leu-OH] (H-Gly-Thr-Leu-OH), the “mean fluorescence intensity” value in experiment [3] is “tendency to enhance”. Further, in experiment [2] (setting [4]), the Branch length entry is “** (**p < 0.01)”, the Cell count result is reported as “* (*p < 0.05)” and the Number of intersections result is given as “** (**p < 0.01)”. Also, the angiogenesis-promoting effects result in experiment [2] (vs normal group, in words) is on record as “exhibited angiogenesis-promoting effects”.

Take `CC(C)C[C@H](NC(=O)[C@@H](NC(=O)CNC(=O)[C@@H]1CCCN1C(=O)[C@H](C)NC(=O)[C@@H]1CCCN1C(=O)[C@H](CC(C)C)NC(=O)[C@@H](C)N)[C@@H](C)O)C(=O)O` [Compound 2, H-D-Ala-Leu-Pro-Ala-Pro-Gly-Thr-Leu-OH] (H-[dA]LPAPGTL-OH): in experiment [3] (setting [4]), the Longest neurite length entry is listed as “** (**p < 0.01)”, the “Neurite initiation points (branches)” value is recorded as “* (*p < 0.05)”, the “Number of neurite terminals” value is reported as “** (**p < 0.01)” and the Total neurite length result is given as “** (**p < 0.01)”. Further, in experiment [2] (setting [4]), the Branch length result is “*** (***p < 0.001)”, the Cell count result is “* (*p < 0.05)” and the Number of intersections result is “** (**p < 0.01)”. In addition, the angiogenesis-promoting effects entry in experiment [2] (vs normal group, in words) is listed as “exhibited angiogenesis-promoting effects”.

Take “H-LAPAPGTL-OH [Compound 19, H-Leu-Ala-Pro-Ala-Pro-Gly-Thr-Leu-OH]”: the Proliferation-promoting results in experiment [1] is reported as “** (**p < 0.01)”. For the same compound, in experiment [2] (setting [4]), the Branch length entry is listed as “* (*p < 0.05)” and the Number of intersections entry was “* (*p < 0.05)”. Further, the angiogenesis-promoting effects result in experiment [2] (vs normal group, in words) is listed as “exhibited angiogenesis-promoting effects”.

In the case of `CC(C)C[C@H](NC(=O)[C@@H](NC(=O)CNC(=O)[C@@H]1CCCN1C(=O)[C@H](C)NC(=O)[C@H]1CCCN1C(=O)[C@H](CC(C)C)NC(=O)[C@H](C)N)[C@@H](C)O)C(=O)O` [Compound 4, H-Ala-Leu-D-Pro-Ala-Pro-Gly-Thr-Leu-OH] (H-AL[dP]APGTL-OH), in experiment [3] (setting [4]), the Longest neurite length result is listed as “*** (***p < 0.001)”, the “Neurite initiation points (branches)” value was “** (**p < 0.01)”, the “Number of neurite terminals” value is reported as “** (**p < 0.01)” and the Total neurite length result was “** (**p < 0.01)”. Further, the Cell count entry in experiment [2] (setting [4]) was “* (*p < 0.05)”. Further, in experiment [2] (vs normal group, in words), the cell proliferation entry is “only promoted cell proliferation”.
